Laboratory results taken from patent US9850283B2, “Macrocyclic inhibitors of the PD-1/PD-L1 and CD80(B7-1)/PD-L1 protein/protein interactions” (BRISTOL-MYERS SQUIBB COMPANY, priority 2013, dated 2017).
Like-named read-outs stand apart in the source and are kept apart here. Positions of bridges follow the written chain, without caps; N, C: chain ends. Non-standard residues stand in square brackets, D forms with d. Residues, ends and D or L forms follow the SMILES beside them. Phe(3,4-F2) = N[C@@H](Cc1ccc(F)c(F)c1)C(=O)O; Phe(3-Cl) = N[C@@H](Cc1cccc(Cl)c1)C(=O)O; Phe(4-CN) = N#Cc1ccc(C[C@H](N)C(=O)O)cc1; Bta = N[C@@H](Cc1csc2ccccc12)C(=O)O; Hyp = O=C(O)[C@@H]1C[C@@H](O)CN1; NMeF = CN[C@@H](Cc1ccccc1)C(=O)O; AllylGly = C=CC[C@H](N)C(=O)O; NMeNle = CCCC[C@H](NC)C(=O)O; dPip = O=C(O)[C@H]1CCCCN1; NMeA = CN[C@@H](C)C(=O)O; Dab = NCC[C@H](N)C(=O)O; Dap = NC[C@H](N)C(=O)O; Sar = CNCC(=O)O

Columns and labels:
Human PD-L1/PD-1 = molecular target: T1, Human PD-L1/PD-1 (Homo sapiens, UniProt Q9NZQ7); assay: HTRF PD-1-Ig/PD-L1-His binding assay (human PD-L1); conditions: cluster symbol; read-out: HTRF IC50 cluster
T1 construct: made in house; host or cells: HEK293T
Method in brief: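 Readout: time-resolved FRET between Eu cryptate-labeled anti-Ig (1 nM final) and APC-labeled anti-His (20 nM final) antibodies. These detect interaction of Fc-fused PD-1 with His-tagged human PD-L1 in dPBS containing 0.1% BSA and 0.05% Tween-20.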

[1] = molecular target: T2, LK35.2-hPD-L1 cells / PE-labeled PD-1-Ig (Homo sapiens, UniProt Q9NZQ7); assay: LK35.2-hPD-L1 cell binding high-content screening assay; format: cell-based; conditions: cluster symbol, read-out: CBA IC50 cluster
T2 construct: expressed in transfected cells; host or cells: LK35.2 mouse B cell line
Method in brief: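 Compound effect on PD-1/PD-L1 binding is measured by imaging cell-associated phycoerythrin signal. Human PD-1-Ig (PE on Ig tag, 1 nM final) is applied with compound to a murine B cell line overexpressing human PD-L1 for 1 h at 37 °C in serum-containing RPMI.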

[2] = cell line of CBA not given (LK35.2-hPD-L1 or 293T-hPD-L1)
[3] = cell binding assay, cell line not given

T2 sequence (Q9NZQ7 19-290): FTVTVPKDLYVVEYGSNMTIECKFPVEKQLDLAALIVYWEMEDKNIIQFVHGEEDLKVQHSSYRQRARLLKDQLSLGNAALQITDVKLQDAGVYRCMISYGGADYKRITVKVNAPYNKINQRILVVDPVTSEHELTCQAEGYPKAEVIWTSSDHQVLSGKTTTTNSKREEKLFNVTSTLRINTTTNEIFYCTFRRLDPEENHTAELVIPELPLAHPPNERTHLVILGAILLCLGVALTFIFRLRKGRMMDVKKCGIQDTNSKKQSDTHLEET
T1 sequence (Q9NZQ7 with tags, fused parts or gaps): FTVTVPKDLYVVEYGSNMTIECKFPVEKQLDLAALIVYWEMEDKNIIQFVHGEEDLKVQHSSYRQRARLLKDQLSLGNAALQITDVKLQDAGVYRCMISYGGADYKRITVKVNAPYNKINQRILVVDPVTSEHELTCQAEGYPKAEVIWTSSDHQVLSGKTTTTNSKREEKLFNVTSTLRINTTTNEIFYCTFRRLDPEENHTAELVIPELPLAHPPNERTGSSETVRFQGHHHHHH

Row | Compound | IC50 (Human PD-L1/PD-1) [nM] | IC50 [1, 2] [nM] | IC50 [1, 3] [nM]
1 | C=CC[C@@H]1NC(=O)[C@H](Cc2c[nH]c3ccccc23)NC(=O)[C@@H]2CCCN2C(=O)[C@H](CC(C)C)NC(=O)[C@H](Cc2cnc[nH]2)NC(=O)[C@@H]2CCCN2C(=O)[C@H](CC(N)=O)NC(=O)[C@H](C)N(C)C(=O)[C@H](Cc2cnc[nH]2)NC(=O)CSC[C@@H](C(=O)NCC(N)=O)NC(=O)[C@H](CC=C)NC(=O)[C@H](CCCC)N(C)C(=O)[C@H](CCCC)N(C)C(=O)[C@H](Cc2c[nH]c3ccccc23)NC1=O [Example 7021] ({CH2CO}-H[NMeA]NPHLPW[AllylGly]W[NMeNle][NMeNle][AllylGly]CG-NH2; thioether N-14) | > 30.5 | – | > 74.3
2 | CCCC[C@H]1C(=O)N(C)[C@@H](CCCC)C(=O)N[C@@H](CCCNC(=N)N)C(=O)N[C@H](C(=O)NCC(N)=O)CSCC(=O)N[C@@H](Cc2ccc(C#N)cc2)C(=O)N(C)[C@@H](C)C(=O)N[C@@H](CC(N)=O)C(=O)N2CCC[C@H]2C(=O)N[C@@H](CN)C(=O)N[C@@H](CC(C)C)C(=O)N2C[C@H](O)C[C@H]2C(=O)N[C@@H](Cc2c[nH]c3ccccc23)C(=O)N[C@@H](CO)C(=O)N[C@@H](Cc2c[nH]c3ccccc23)C(=O)N1C [Example 7038] ({CH2CO}-[Phe(4-CN)][NMeA]NP[Dap]L[Hyp]WSW[NMeNle][NMeNle]RCG-NH2; thioether N-14) | 0.385 to 6.74 | – | 0.158 to 4.71
3 | CCCC[C@H]1C(=O)N(C)[C@@H](CCCC)C(=O)N[C@@H](CCCNC(=N)N)C(=O)N[C@H](C(=O)NCC(N)=O)CSCC(=O)N[C@@H](Cc2ccc(O)cc2)C(=O)N(C)[C@@H](C)C(=O)N[C@@H](CC(N)=O)C(=O)N2CCC[C@H]2C(=O)N[C@@H](CN)C(=O)N[C@@H](CC(C)C)C(=O)N2CCC[C@H]2C(=O)N[C@@H](Cc2c[nH]c3ccccc23)C(=O)N[C@@H](CO)C(=O)N[C@@H](Cc2csc3ccccc23)C(=O)N1C [Example 1084] ({CH2CO}-Y[NMeA]NP[Dap]LPWS[Bta][NMeNle][NMeNle]RCG-NH2; thioether N-14) | 0.385 to 6.74 | 0.158 to 4.71 | –
4 | CCCC[C@H]1C(=O)N(C)[C@@H](CCCC)C(=O)N[C@@H](CCCNC(=N)N)C(=O)N[C@H](C(=O)NCC(N)=O)CSCC(=O)N[C@@H](Cc2ccc(O)cc2)C(=O)N(C)[C@@H](C)C(=O)N[C@@H](CCN)C(=O)N2CCC[C@H]2C(=O)N[C@@H](Cc2c[nH]cn2)C(=O)N[C@@H](CC(=O)O)C(=O)N2C[C@H](O)C[C@H]2C(=O)N[C@@H](Cc2c[nH]c3ccccc23)C(=O)N[C@@H](CO)C(=O)N[C@@H](Cc2c[nH]c3ccccc23)C(=O)N1C [Example 5132] ({CH2CO}-Y[NMeA][Dab]PHD[Hyp]WSW[NMeNle][NMeNle]RCG-NH2; thioether N-14) | 6.76 to 30.3 | – | 4.78 to 72.9
5 | CCCC[C@H]1C(=O)N2CCCC[C@@H]2C(=O)N[C@@H](CC(=O)O)C(=O)N[C@@H](C(C)C)C(=O)N(C)[C@@H](Cc2ccccc2)C(=O)N[C@@H](Cc2ccc(O)cc2)C(=O)N(C)CC(=O)N[C@@H](Cc2c[nH]c3ccccc23)C(=O)N[C@@H](Cc2ccc(O)cc2)C(=O)N[C@@H](CC(C)C)C(=O)N[C@H](C(=O)NCC(N)=O)CSCC(=O)N[C@@H](Cc2ccccc2)C(=O)N(C)[C@@H](Cc2ccccc2)C(=O)N1C [Example 3573] ({CH2CO}-F[NMeF][NMeNle][dPip]DV[NMeF]Y[Sar]WYLCG-NH2; thioether N-13) | 6.76 to 30.3 | – | 4.78 to 72.9

Results, then the molecule that gave them:

Row | IC50 (Human PD-L1/PD-1) [nM] | IC50 [1, 2] [nM] | IC50 [1, 3] [nM] | Compound
6 | 6.76 to 30.3 | 0.158 to 4.71 | – | CCCC[C@H]1C(=O)N(C)CC(=O)N[C@@H](CC(=O)O)C(=O)N[C@@H](C(C)C)C(=O)N(C)[C@@H](Cc2ccccc2)C(=O)N[C@@H](Cc2ccc(O)cc2)C(=O)N2CCC[C@@H]2C(=O)N[C@@H](Cc2c[nH]c3ccccc23)C(=O)N[C@@H](Cc2ccc(O)cc2)C(=O)N[C@@H](CC(C)C)C(=O)N[C@H](C(N)=O)CSCC(=O)N[C@@H](Cc2cccc(Cl)c2)C(=O)N(C)[C@@H](Cc2ccccc2)C(=O)N1C [Example 3166] ({CH2CO}-[Phe(3-Cl)][NMeF][NMeNle][Sar]DV[NMeF]Y[dP]WYLC-NH2; thioether N-13)
7 | 6.76 to 30.3 | 4.78 to 72.9 | – | CCCC[C@H]1C(=O)N(C)[C@@H](CCCC)C(=O)N[C@@H](CCCNC(=N)N)C(=O)N[C@H](C(=O)NCC(N)=O)CSCC(=O)N[C@@H](Cc2ccc(F)c(F)c2)C(=O)N(C)[C@@H](C)C(=O)N[C@@H](CC(N)=O)C(=O)N2CCC[C@H]2C(=O)N[C@@H](Cc2cnc[nH]2)C(=O)N[C@@H](CC(C)C)C(=O)N(C)CC(=O)N[C@@H](Cc2c[nH]c3ccccc23)C(=O)N[C@@H](CO)C(=O)N[C@@H](Cc2c[nH]c3ccccc23)C(=O)N1C [Example 1104] ({CH2CO}-[Phe(3,4-F2)][NMeA]NPHL[Sar]WSW[NMeNle][NMeNle]RCG-NH2; thioether N-14)
